Reference: a melting point compilation (Tetko et al.; mined from patent text by program, amines drawn as free bases though some values may be those of a salt)

Row | Structure (SMILES) | melting point [°C]
1 | CC1(c2ccc(Br)cc2)Cc2cc(O)c(Cl)c(Cl)c2C1=O (centres undefined) | 221 to 223
2 | COC(=O)c1ccc2ncc(C(=S)NCc3ccc(Cl)cc3)c(O)c2c1 | 259 to 261
3 | O=C(C=Cc1ccc(N2CCCC2)cc1)c1ccc2c(c1)CCC2 | 162 to 164
4 | O=C(O)c1ccc(C(F)F)o1 | 112 to 113
5 | COc1cc(C(=O)NNC(=O)c2occ(-c3ccccc3)c2-c2ccccc2)ccc1O | 216 to 220
6 | CCCN(C(=O)OCC(Cl)(Cl)Cl)C1CN(C(=O)Nc2ccc(C(F)(F)F)cc2)N=C1c1ccc(Cl)cc1 (centres undefined) | 172 to 173
7 | CNC(=O)Nc1ccc(Oc2ccc3sncc3c2)c(C(F)(F)F)c1 | 138
8 | Sc1ncc(-c2ccc(Cl)cc2)[nH]1 | 308
9 | CCCCC(CC)COC(=O)c1cc(OC)c(O)c(OC)c1 (centres undefined) | 35 to 36
10 | Cc1nc(COc2ccc3c(c2)[C@H](O)[C@H](Cc2cccnc2)CO3)ccc1Br (relative stereo) | 134 to 137
11 | CCCCCCCCCCCCCCC(CCC(=O)OCc1ccccc1)(C(=O)O)C(=O)O | 47 to 49
12 | CNC(NCCNCc1ccc(CN(C(C)C)C(C)C)o1)=C(C#N)C#N | 79 to 80
13 | COC(=O)C=Cc1ccc(C(=O)O)s1 | 156
14 | CC(=O)NCc1ccc2oc([N+](=O)[O-])c(-c3ccccc3)c2c1 | 201 to 203
15 | O=C(N1CCC2(C=Cc3ccccc32)CC1)N1CCCc2ccccc21 | 130 to 133
16 | COCCOc1ncnc2[nH]ccc12 | 137 to 139
17 | Cc1[nH]c(=O)c2c(N)c([N+](=O)[O-])ccc2c1C | > 300
18 | CC(=O)Oc1ccccc1C(=O)N[C@@H]1CCCC[C@@H]1O[N+](=O)[O-] (relative stereo) | 143 to 145
19 | CCOC(=O)c1oc2cccc(C(C)OC)c2c1C (centres undefined) | 67 to 69
20 | CC(=O)NC[C@H]1CN(c2ccc(C(=O)c3cnc4ccc(Br)cn34)cc2)C(=O)O1 | 230 to 232
21 | Cn1c(N)nc2cc(CN3CCN(C(c4ccccc4)c4ccccc4)CC3)ccc21 | 268
22 | CCOC(=O)c1nc2sc(CC)c([N+](=O)[O-])c2c(=O)[nH]1 | 200 to 212
23 | CCc1ncc(CCCOc2c(C)cc(-c3noc(C(F)F)n3)cc2C)s1 | 68 to 70

Row | Structure (SMILES) | melting point [°C]
24 | NCc1cccc(Cn2ccc(OCc3ccc(F)cc3F)c(Br)c2=O)c1F | 160 to 163
25 | CC(=O)Nc1ccc(-c2cc(C(=O)c3cc(-c4ccc(NC(C)=O)cc4)c(N4CCOCC4)s3)sc2N2CCOCC2)cc1 | 140 to 142
26 | O=[N+]([O-])c1cc(F)c(-c2ccc(C(F)(F)F)cc2)cc1F | 113 to 114
27 | CN(C)C(=O)C(c1ccccc1)(c1ccccc1)c1ncc[nH]1 | 202
28 | O=C(O)c1ccc(S(=O)(=O)Oc2ccc(-c3ccc(-c4c(Cc5ccccc5)sc5ccccc45)cc3)cc2)cc1O | 236 to 238
29 | O=[N+]([O-])c1ccc(Oc2cccc3c(Oc4ccc([N+](=O)[O-])c([N+](=O)[O-])c4)cccc23)cc1[N+](=O)[O-] | 224 to 228
30 | O=C(CC(F)(F)F)CS(=O)(=O)C(c1ccc(Cl)cc1)c1ccc(Cl)cc1 | 48 to 50
31 | CCCCCc1ccc(-c2ccc(C(=O)O)cc2)cc1 | 174
32 | O=C(NO)c1ccc(OC(=O)C2(c3ccccc3)CCCCC2)cc1 | 142 to 144
33 | COc1ccc(CNN2C(=O)CC(C)c3cnc(SC)nc32)cc1Cl (centres undefined) | 118 to 120
34 | CC(C)(C)c1c(Cl)nc(Cl)nc1Cl | 58 to 59
35 | CC(=O)N1CCC(C(=O)N2CC[C@@H](N(C)C(=O)c3ccc(C4CC4)cc3)[C@H](c3ccc(Cl)c(Cl)c3)C2)CC1 | 129 to 133
36 | CC(=O)O[C@@H](C)C(=O)Nc1c(C(=O)c2ccccc2)[nH]c2cc(Cl)ccc12 | 80 to 85
37 | O=C1CC2OC(CS(=O)c3ccccc3)CN12 (racemic) | 119 to 120
38 | COc1ccc(-n2nc(C(C)CCO)cc2-c2ccc(Cl)cc2)cc1 (centres undefined) | 97.5 to 98.5
39 | CCOc1cccc(Cn2ncc3c(N4CCN(C(=O)OC(C)(C)C)CC4)ncnc32)n1 | 130 to 132
40 | NCc1nc(-c2ncn3c2[C@@H]2CCN2C(=O)c2c(Cl)cccc2-3)no1 | 212 to 214
41 | C=C(c1ccccc1)C(O)C(NC=O)C(=O)OC (centres undefined) | 173 to 174
42 | Cc1c(C)c2c(c(C)c1NC(=O)c1ccc(F)cc1)C(c1ccc(C(C)C)cc1)C(C)(C)O2 (single isomer, unassigned; (+)) | 251 to 253
43 | CCn1nc(C(C)C)c2c1C(=O)NCC(c1ccccc1)=N2 | 160
44 | Cc1cccc(-c2ccc3c(c2)c(C(=O)C(=O)NCC(=O)O)cn3Cc2ccc(C(C)(C)C)cc2)c1 | 108 to 109
45 | N#Cc1ccccc1COc1cccc(Cl)c1 | 56
46 | CS(=O)(=O)OCc1cc(-c2ccc3c(c2)CCO3)nn(Cc2ccc(Cl)cc2)c1=O | 69 to 70

Row | Structure (SMILES) | melting point [°C]
47 | CC(C)(C)c1csc(-c2cc3cc(OCc4cccc(C#N)c4)ccc3o2)n1 | 104 to 106
48 | CCCc1c(OCCCOc2ccc(C(=O)O)cc2)ccc(C(C)=O)c1O | 180 to 183
49 | Cc1ccc2[nH]c(=O)n(C(C)(C)C(=O)OCC(=O)c3ccccc3)c(=O)c2c1 | 189 to 191
50 | C=CCc1c(O)cc(O)c(C(C)=O)c1O | 158 to 159
51 | COc1ccc2cn[nH]c(=O)c2c1 | 228 to 229
52 | CC(=O)N1CCc2c(c3ccc(-n4ccc(OCc5ccccc5)cc4=O)cc3n2C)C1 | 225 to 230
53 | CC(C)(C)OC(=O)[C@@H]1CC[C@H](CC(=O)N[C@@H](Cc2ccc(OCc3c(Cl)cccc3Cl)cc2)C(=O)O)N1Cc1ccccc1 | 80 to 83
54 | O=C(Nc1ccc(-n2nc(C(F)(F)F)cc2C(F)(F)F)cc1)c1cccc(C(F)(F)F)c1 | 143 to 145
55 | COc1cc2c(c3ccccc13)Nc1ccccc1S2 | 168 to 170
56 | CN1C(=O)N(CCN=C=O)C(C)(C)C1=O | 62
57 | O=C1CC(Cc2ccc(Cl)cc2)CN1 (centres undefined) | 95 to 98
58 | CCOC(=O)CCCCNc1ccc2c(c1)CCC2 | 61 to 63
59 | C=COCCONC(=O)c1cc(Cl)c(F)c(F)c1Nc1ccc(I)cc1F | 119 to 120
60 | COc1ccc(C(=O)N[C@H]2C[C@@H](c3cc(NC(=O)Cc4cccc5ccccc45)n[nH]3)C2)cc1 | 176
61 | CCc1ccc(C=NNC(=O)c2ccc(O)cc2)s1 | 194
62 | CC(C)=CCc1c(O)ccc(CCCc2ccc(O)cc2)c1O | 115 to 116
63 | CN(C)CCCc1ccc(OCCCNc2nc(N)nn2C)cc1 | 112 to 114
64 | N#Cc1ccc(-c2ccc(-c3ccc(C#N)nc3)o2)cc1 | 276 to 277
65 | CC1(C)CC(SCc2c(C(F)(F)F)nn(C(F)F)c2Cl)=NO1 | 41 to 42
66 | CC(=O)C1CCC2C3CCC4CC(O)C(N5CCOC(C)(C)C5)CC4(C)C3C(O)CC12C (centres undefined) | 182 to 185
67 | CC(C)c1nc(CO)n(Cc2ccc(=O)[nH]c2)c1Sc1cc(Cl)cc(Cl)c1 | 220
68 | COc1cc2c3c(c1)nc(SCc1ccc4ccccc4n1)n3CCC2 | 89 to 91
69 | N#Cc1cc([N+](=O)[O-])ccc1Sc1ccccc1 | 82 to 84
